Literature values in patent publication US20080317725A1, “COMPOSITIONS AND METHODS OF TREATING CHRONIC KIDNEY DISEASE” (priority 2007, published 2008).

Legend:
[1] = administered in large doses
[2] = system: humans
[3] = system: subjects undergoing dialysis; conditions: vitamin A intake of about 15,000 IU

Q: Which side effect [1] does the source give for `CC(=O)N[C@@H](CS)C(=O)O` [NAC, N-acetyl cysteine] here?
A: cause nausea

Q: Which “vitamin D activity in humans relative to vitamin D3” value [2] does the source give for `C=C1CC[C@H](O)C/C1=C/C=C1\CCC[C@]2(C)[C@@H]([C@H](C)/C=C/[C@H](C)C(C)C)CC[C@@H]12` [vitamin D2, ergocalciferol] here?
A: about 1.7 times less than D3

Q: Which “toxicity of vitamin A intake” value [3] does the source give for vitamin A here?
A: produce vitamin A toxicity and correlate with hypercalcaemia
